In one test the test system is Aspergillus species. The test can be described thus: Antifungal activity with Mycograb antibody, summary over the Aspergillus species examined. Format: cell-based. The note with it: summary of Tables 1-4; agent combined with Mycograb antibody. On the procedure:
(§1) An inoculum suspension was prepared in buffered RPMI with glutamine medium by probing colonies from a 7 day old Sabouraud plate. The suspension was adjusted to 0.09-0.11 (80% to 82% transmittance) for Aspergillus species, 0.15-0.17 (68% to 70% transmittance). The inoculum was diluted a further 1:2 when added to the antifungal agents in the assay (final inoculum (0.4×10^4 to 0.5×10^4). For AMB and Mycograb®, either alone or in combination, the endpoint was determined as the concentration to produce no growth (MIC-0). Microtitre plates were incubated at 37° C. without agitation for 48 hours for Aspergillus species. For caspofungin, voriconazole and itraconazole, either alone or in combination with Mycograb® antibody, the MIC endpoint was determined as the concentration resulting in a prominent decrease in turbidity (≧50% growth inhibition, MIC-2) compared to the growth control (Keele et al. 2001; Espinel-Ingroff 2003). The final inhibitory concentration (FIC) was calculated for each drug by dividing the MIC in the presence of the second drug by the MIC in its absence. For each combination, two fractions were produced which were summated to produce the fractional final inhibitory concentration. Synergy was defined by value of ≦0.5, indifference was defined by a value of >0.5 to <4.0, and antagonism was defined by a value of ≧4.0 (Matthews et al., 2003).

The test system of the next test is Candida strains. The note with it: WO 01/76627, cited from earlier work.
Another test has as its system A. terreus. Put plainly: Broth microdilution (NCCLS M38-A) checkerboard assay, A. terreus. Format: cell-based. On the procedure:
(§2) Stock solutions of amphotericin B (AMB, Sigma), caspofungin (Caspo), voriconazole (VOR) and itraconazole (ITZ) were prepared according to the National Committee for Clinical Laboratory Standards (M38-A) in RPMI 1640 with glutamine broth medium, buffered to pH 7.0 with […] morpholinopropanesulphonic acid (MOPS). AMB stock solutions were prepared as a 100× series in 100% dimethyl sulfoxide (DMSO) and diluted in medium to a concentration range of 0.03125 to 16 μg/ml. Caspofungin, voriconazole and itraconazole were tested at a concentration range of 0.03125 to 1024 μg/ml, and Mycograb® (NeuTec Pharma plc) at a concentration range of 0.25 to 1024 μg/ml.
(§3) Clinical isolates of Aspergillus fumigatus (2), A. flavus (1), A. terreus (1) and A. niger (1) were obtained from the Department on Microbiology, Manchester Royal Infirmary, Manchester, UK.
as §1
On the technique in general: In broth dilution the organism is exposed to a series of concentrations in liquid medium.

The subject of a further test is A. fumigatus. The test can be described thus: Broth microdilution (NCCLS M38-A) checkerboard assay, A. fumigatus. In kind it is cell-based, Aspergillus fumigatus. Here is the method:
as §2, §3, §1

For the next test, the system named is A. flavus. The test can be described thus: Broth microdilution (NCCLS M38-A) checkerboard assay, A. flavus. Format: cell-based. Here is the method:
as §2, §3, §1

A further test relates to A. niger. The test can be described thus: Broth microdilution (NCCLS M38-A) checkerboard assay, A. niger. In kind it is cell-based. On the procedure: as §2, §3, §1
The next test deals with A. fumigatus CI2. Put plainly: Broth microdilution (NCCLS M38-A) checkerboard assay, A. fumigatus CI2. Format: cell-based, Aspergillus fumigatus. On the procedure:
as §2, §3, §1

[1] abbreviates: agent alone, Table 1, no growth endpoint.
Setting [2] is: amphotericin B and Mycograb combination.
The mark [3] stands for this setting: amphotericin B and Mycograb in combination.

Take `OC(Cn1cncn1)(Cn1cncn1)c1ccc(F)cc1F` [fluconazole]: the “Antifungal activity / surprising effect when used in combination with Mycograb antibody” value with Aspergillus species was “not observed”. Further, the “Synergy in combination with Mycograb antibody against Candida strains” value in the test with Candida strains (prior finding) is “little synergy”.

As for `C[C@@H]1[C@H](O)[C@@H](C)/C=C/C=C/C=C/C=C/C=C/C=C/C=C/[C@H](O[C@@H]2O[C@H](C)[C@@H](O)[C@H](N)[C@@H]2O)C[C@@H]2O[C@](O)(C[C@@H](O)C[C@@H](O)[C@H](O)CC[C@@H](O)C[C@@H](O)CC(=O)O[C@H]1C)C[C@H](O)[C@H]2C(=O)O` [AMB, amphotericin B], the “MIC-0 of each agent, Alone” value in the test on A. terreus (setting [1]) turned out to be 4 mg/L; in the test with A. fumigatus (setting [1]), 2 mg/L; in the test on A. flavus (setting [1]) it was 4 mg/L; with A. niger (setting [1]) it was 2 mg/L; with A. fumigatus CI2 (setting [1]), 2 mg/L. For the same compound, the FICI in the test with A. terreus (setting [2]) stood at 2; in the test on A. fumigatus (setting [2]), 0.5; with A. flavus (setting [2]) it was 2; with A. niger (setting [2]), 0.5; in the test on A. fumigatus CI2 (setting [2]) it was 0.531. The Outcome result in the test with A. terreus (setting [2]), in the test on A. fumigatus (setting [2]), in the test on A. flavus (setting [2]), with A. niger (setting [2]) and in the test with A. fumigatus CI2 (setting [2]) was “Indifferent (indifference was defined by a value of >0.5 to <4.0)” in each case. The “MIC-0 of each agent, Combination” value in the test with A. terreus (setting [3]) worked out at 4 mg/L; in the test with A. fumigatus (setting [3]), 1 mg/L; in the test on A. flavus (setting [3]), 4 mg/L; in the test on A. niger (setting [3]), 1 mg/L; in the test with A. fumigatus CI2 (setting [3]), 1 mg/L. Besides, in the test on A. terreus (amphotericin B and Mycograb, MIC in combination divided by MIC alone), the FIC worked out at 1 µg/mL. Also, the “Antifungal activity / surprising effect when used in combination with Mycograb antibody” value in the test with Aspergillus species is listed as “not observed”. The “Efficacy of antifungal agent in the presence of the antibody” value with Candida strains (wide variety of fungal strains (e.g. Candida species)) was “significantly enhanced”.

The record behind these values is US20080095778A1, “Treatment Of Fungal Infections” (priority 2004, published 2008).
